Test results as given in patent publication US20220193060A1, “Inhibition of IL-1 Induced Inflammation” (THIOLAB, LLC., priority 2019, published 2022).

System: IL-1β
Test: IL-1β ELISA, PMA-treated THP-1 cells stimulated with IFNγ and LPS
Format: cell-based, human
Conditions: for Ave IL-Ib 1/10 Avg / Ave IL-Ib 1/10 Rep 1 / Ave IL-Ib 1/10 Rep 2 / Ave IL-Ib 2/28 Rep 1 / Ave IL-Ib 2/28 Rep 2 / Ave IL-Ib 2/28 Rep 3 / IL-1β Relative %: THP-1
Method: Methodology: The study included replicated tests of IL-1β levels with and without CPDS, as well as reference testing of untreated cells and cells treated with lactoferrin and clobetasol. A third test was conducted of IL-1 receptor […] (IL-1RA) receptor, to assist in distinguishing whether reductions in IL-1β levels were associated with secretion or receptor blocking (via the receptor antagonist). Cell viability studies were conducted for both sets of tests. Each of the tests used an ELISA model with the following protocols. 1. THP-1 cells were grown in (RPMI+10% FBS, 10 mM HEPES, 1 mM Sodium Pyruvate, and 0.05 mM 2-Mecaptpethanol) to P8. 2. Cells were plated at 30,000 cells per well in 120 ul with Media+20 ng/ml PMA+2× Genta. 3. […] Cells were treated according to plan below. 5. Cells were incubated for three more days at 37° C. and 5% CO2. 6. Cell supernatant were collected and ELISA was measured for IL-1RA, IL-1α, and IL-1β. 7. Plate was read at 490 nm until O.D reached 1.5. Day 1—1. THP-1+20 ng/ml PMA 30,000 cells per well 120 uL Day 3—1. Add Compound at 4× in 60 uL. Incubate for 2 hours. CPDS—800 uM (200 uM Final), lactoferrin—800 ug/mL (200 ug/ml Final) clobetasol −40 ng/mL (10 ng/mL Final). 2. […] Add 30 uL LPS at 8×—20 ng/ml (2.5 ng/ml final) in 30 uL (Wells 2-10) 4. Incubate for 3 days. Day 6—1. Collect 80 ul of sample 2 times and freeze for ELISA. 2. Develop with 15 uL of Substrate and read at 490 nm until plate reaches 1.5 OD. THP-1 is a spontaneously immortalized monocyte-like cell line, derived from the peripheral blood of a childhood case of acute monocytic leukemia, which has been extensively used to study monocyte/macrophage functions, mechanisms, signaling pathways, and nutrient and drug transport. This cell line has become a common model to estimate modulation of monocyte and macrophage activities.

[1] = CPDS 1.6 uM + 10 ng/ml IFNy + 2.5 ng/ml LPS
[2] = CPDS 3.1 uM + 10 ng/ml IFNy + 2.5 ng/ml LPS
[3] = CPDS 6.3 uM + 10 ng/ml IFNy + 2.5 ng/ml LPS
[4] = CPDS 12.5 uM + 10 ng/ml IFNy + 2.5 ng/ml LPS
[5] = CPDS 25.0 uM + 10 ng/ml IFNy + 2.5 ng/ml LPS
[6] = CPDS 50.0 uM + 10 ng/ml IFNy + 2.5 ng/ml LPS
[7] = CPDS 100.0 uM + 10 ng/ml IFNy + 2.5 ng/ml LPS
[8] = CPDS 200.0 uM + 10 ng/ml IFNy + 2.5 ng/ml LPS

O=C(O)c1ccc(SSc2ccc(C(=O)O)cn2)nc1 [CPDS, 6,6′-dithiodinicotinic acid]
neutralization of production of IL-1β in human cells (25 μM): near neutralization
Ave IL-Ib 1/10 Avg [1]: 0.19 ng/mL
Ave IL-Ib 1/10 Rep 1 [1]: 0.19 ng/mL
Ave IL-Ib 1/10 Rep 2 [1]: 0.18 ng/mL
Ave IL-Ib 2/28 Rep 1 [1]: 0.32 ng/mL
Ave IL-Ib 2/28 Rep 2 [1]: 0.29 ng/mL
Ave IL-Ib 2/28 Rep 3 [1]: 0.30 ng/mL
IL-1β Relative % [1]: 114.2%
Ave IL-Ib 1/10 Avg [2]: 0.19 ng/mL
Ave IL-Ib 1/10 Rep 1 [2]: 0.21 ng/mL
Ave IL-Ib 1/10 Rep 2 [2]: 0.17 ng/mL
Ave IL-Ib 2/28 Rep 1 [2]: 0.30 ng/mL
Ave IL-Ib 2/28 Rep 2 [2]: 0.26 ng/mL
Ave IL-Ib 2/28 Rep 3 [2]: 0.28 ng/mL
IL-1β Relative % [2]: 105.2%
Ave IL-Ib 1/10 Avg [3]: 0.15 ng/mL
Ave IL-Ib 1/10 Rep 1 [3]: 0.15 ng/mL
Ave IL-Ib 1/10 Rep 2 [3]: 0.14 ng/mL
Ave IL-Ib 2/28 Rep 1 [3]: 0.23 ng/mL
Ave IL-Ib 2/28 Rep 2 [3]: 0.24 ng/mL
Ave IL-Ib 2/28 Rep 3 [3]: 0.24 ng/mL
IL-1β Relative % [3]: 88.7%
Ave IL-Ib 1/10 Avg [4]: 0.08 ng/mL
Ave IL-Ib 1/10 Rep 1 [4]: 0.09 ng/mL
Ave IL-Ib 1/10 Rep 2 [4]: 0.06 ng/mL
Ave IL-Ib 2/28 Rep 1 [4]: 0.13 ng/mL
Ave IL-Ib 2/28 Rep 2 [4]: 0.11 ng/mL
Ave IL-Ib 2/28 Rep 3 [4]: 0.12 ng/mL
IL-1β Relative % [4]: 45.8%
Ave IL-Ib 1/10 Avg [5]: 0.04 ng/mL
Ave IL-Ib 1/10 Rep 1 [5]: 0.05 ng/mL
Ave IL-Ib 1/10 Rep 2 [5]: 0.03 ng/mL
Ave IL-Ib 2/28 Rep 1 [5]: 0.04 ng/mL
Ave IL-Ib 2/28 Rep 2 [5]: 0.03 ng/mL
Ave IL-Ib 2/28 Rep 3 [5]: 0.04 ng/mL
IL-1β Relative % [5]: 13.7%
Ave IL-Ib 1/10 Avg [6]: 0.01 ng/mL
Ave IL-Ib 1/10 Rep 1 [6]: 0.01 ng/mL
Ave IL-Ib 1/10 Rep 2 [6]: 0.01 ng/mL
Ave IL-Ib 2/28 Rep 1 [6]: 0.02 ng/mL
Ave IL-Ib 2/28 Rep 2 [6]: 0.01 ng/mL
Ave IL-Ib 2/28 Rep 3 [6]: 0.02 ng/mL
IL-1β Relative % [6]: 6.1%
Ave IL-Ib 1/10 Avg [7]: 0.01 ng/mL
Ave IL-Ib 1/10 Rep 1 [7]: 0.01 ng/mL
Ave IL-Ib 1/10 Rep 2 [7]: 0.01 ng/mL
Ave IL-Ib 2/28 Rep 1 [7]: 0.03 ng/mL
Ave IL-Ib 2/28 Rep 2 [7]: 0.01 ng/mL
Ave IL-Ib 2/28 Rep 3 [7]: 0.02 ng/mL
IL-1β Relative % [7]: 8.2%
Ave IL-Ib 1/10 Avg [8]: 0.01 ng/mL
Ave IL-Ib 1/10 Rep 1 [8]: 0.01 ng/mL
Ave IL-Ib 1/10 Rep 2 [8]: 0.01 ng/mL
Ave IL-Ib 2/28 Rep 1 [8]: 0.02 ng/mL
Ave IL-Ib 2/28 Rep 2 [8]: 0.02 ng/mL
Ave IL-Ib 2/28 Rep 3 [8]: 0.02 ng/mL
IL-1β Relative % [8]: 6.8%
ability of IFN-γ to stimulate the production of IL-1β (FIG. 1, clinically obtainable levels of CPDS): markedly reduce
levels of IL-1β (FIG. 2, in the presence of LPS): substantially reduce
secretion of IL-1β blocked (concentration as low as 50 uM CPDS): 94%
neutralization of IL-1β (concentrations of 12.5 to 200 μM): complete neutralization
reduction of measured IL-1β levels (concentrations of 12.5 to 200 μM, both tests): 92-99%
neutralization of production of IL-1β in human cells (concentrations ranging from 50-200 μM): completely neutralize
